Patent EP3940071A1, “5-METHYLFOLATE PRODUCING MICROORGANISM” (Chifeng Pharmaceutical Co., Ltd, priority 2020, dated 2022)

Assay: Stability of folic acid in 0.1 M NaOH (HPLC)
Assay type: physicochemical
Conditions: 25 °C, protected from light, 144 hours (6 days)

- decomposition of folic acid: did not undergo to decomposition
Compound: Nc1nc2ncc(CNc3ccc(C(=O)N[C@@H](CCC(=O)O)C(=O)O)cc3)nc2c(=O)[nH]1 [folic acid, pteroyl-L-glutamic acid]
